These results are taken from PMC7537338, “CD47/SIRPα blocking peptide identification and synergistic effect with irradiation for cancer immunotherapy” (Journal for Immunotherapy of Cancer, 2020).

Read-outs that look alike come from different tables or passages of the source. Where a SMILES comes first, the peptide text is derived from it. Where no end group is shown, it is not given here. [ ]: non-standard residue; d: D form. Some results are limits rather than exact numbers.

Series [1] has as its target T1, human CD47/SIRPα interaction (Homo sapiens, UniProt Q08722).
T1 construct: Human or mouse CD47-IgV-Domain-hIg fusion proteins (20 nM, Sino Biological, China); purchased Sino Biological (hIg fusion); ACROBiosystems (biotinylated human CD47); host or cells: SIRPα partner: CHO cells stably expressing human SIRPα
In words: Blocking assay, human CD47 protein binding to CHO cells expressing human SIRPα (flow cytometry). The conditions noted are these: for Blocking rate relative to pep-20 (%): blockade of peptides to hCD47 relative to parent pep-20, Table S4. The method, then:
(§1) Human or mouse CD47-IgV-Domain-hIg fusion proteins (20 nM, Sino Biological, China), or biotinylated human CD47 protein (20 nM, ACROBiosystems, USA) was incubated with titrating concentrations of peptides or anti-human CD47 antibody (B6H12) in phosphate-buffered saline (PBS, pH 7.4) for 1 hour at 4°C. The mixture was incubated with human or mice SIRPα overexpressed Chinese hamster ovary cells for 30 min at 4°C, washed to remove unbound mixtures and phycoerythrin (PE)-conjugated goat anti-human IgG or PE-conjugated streptavidin was incubated (eBioscience, USA). Cells were then analyzed by flow cytometry (BD Biosciences, USA). The IC50 was determined from sigmoidal dose response curves illustrated by GraphPad Prism.
For orientation: Flow cytometry measures light scatter and fluorescence of single cells or particles in a stream.

For series [2], the target named is T2, human CD47-IgV-Domain protein (Homo sapiens, UniProt Q08722).
T2 construct: Human or mouse CD47-IgV-Domain proteins were labeled with NT-647 dye
T2 sequence (Q08722 19-127 limits assumed): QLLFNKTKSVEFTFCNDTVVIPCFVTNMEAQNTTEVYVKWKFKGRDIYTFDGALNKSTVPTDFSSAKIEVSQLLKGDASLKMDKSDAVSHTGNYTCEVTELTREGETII
In words: MST binding assay to human CD47-IgV-Domain protein. How it is done: (§2) Human or mouse CD47-IgV-Domain proteins were labeled with NT-647 dye following the microscale thermophoresis (MST) assay protocol, and the labeled protein used for each assay was about 50 to 200 nM. Unlabeled peptides or ligand protein solution was diluted for appropriate concentration serially in buffer (50 mM Tris, 150 mM NaCl, 10 mM MgCl2, 0.05% Tween-20, 0.5% DMSO and pH 7.5). The labeled proteins were then added to peptides or ligand protein solutions by 1∶1 (v/v). The samples were loaded into silica capillaries after incubation at room temperature for 30 min. Binding constants were determined by the MST assay according to manufacturer’s instructions with 20% or 40% light emitting diode (LED) power, 40% MST power at 25°C (Nano Temper, Monolith NT.115, Germany). Data analysis were performed by using a Nanotemper Analysis software.

Series [3] is described as follows: Pharmacokinetic assay in vivo. The conditions noted are these: C57BL/6, mouse, plasma, iv, 40 mg/kg.
Description: (E, F) The pharmacokinetic analysis
of pep-20 and pep- 20-D12. The plasma concentration-time curve of pep-20 (E) and
Data are represented as means ± SEM.
Pharmacokinetic assays in vivo 140
C57BL/6 mice with weight of 18-20 g were administrated with a single 141
intravenous dose of 40 mg/kg of peptides. Blood samples were collected an d 142
centrifuged at 8000 rpm for 10 min at the indicated intervals. Plasma wa s 143
further mixed with 10% HClO4 at a ratio of 2∶1 (v/v) and centrifuged at 16,000 144
rpm for 10 min. The supernatant was analyzed by RP-HPLC. The 145 pharmacokinetic parameters of peptides were determined by 146 noncompartmental analysis (NCA) using Phoenix WinNonlin software program 147 5.2.1 (Certara, Princeton, USA). The maximum plasma concentration Cmax and 148 elimination half-life (T1/2) were calculated.
The next series has as its system C57BL/6 naïve mice. In words: Mouse toxicity assays in normal mice. In kind it is in vivo, C57BL/6 mice. The method, then: toxicity analysis. Normal C57BL/6 mice were injected s.c. with 2 mg/kg of pep-20 or normal saline as the negative control daily from day 1 to 14 ( n = 5). On days 0 and 14, hematologic parameters were analyzed. Red blood cell count (A), hemoglobin level ( B) have no significant difference between pep-20 group and control group. (C) Representative H&E staining images of pep-20 treated. Normal C57BL/6 mice were injected s.c. with 2 mg/kg of pep-20 or normal saline as the negative control daily for 14 days (n = 5). The mouse primary organs of heart, liver, spleen, lung, kidney and thymus […]
Table S2. Organ coefficients analysis of pep-20-treated mice.
Heart Liver Spleen Lung Kidney thymus
Normal C57BL/6 mice were injected s.c. with 2 mg/kg pep-20 or normal saline as the negative control daily for 14 days (n = 5). The mice organ tissues were stripped for organ […]
Table S3. Hepatic damage analysis of pep-20-treated mice. […]
negative control daily for 14 days (n = 5). Mice serum samples were collected and hepatic damage analysis were performed for standard aspartate aminotransferase assay (AST) and alanine aminotransferase assay (ALT).
111 Mouse toxicity assays
112 Normal C57BL/6 mice were injected s.c. with 2 mg/kg peptides or normal 113 saline as the negative control daily from day 1 to 14 (n = 5). On days 0 and 14, 114 mice blood samples were collected via retro-orbital bleed. […]
116 Hematologic and blood biochemical parameters were analyzed by ADVIA 117 2120i Hematology Analyzer (Siemens, Germany). […]

The next series is described as follows: in vivo. The following applies: C57BL/6, mouse, iv, 40 mg/kg.
Series [4] concerns the target T3, mouse CD47/SIRPα interaction (Mus musculus, UniProt Q61735).
T3 construct: Human or mouse CD47-IgV-Domain-hIg fusion proteins (20 nM, Sino Biological, China); purchased Sino Biological; host or cells: SIRPα partner: CHO cells stably expressing mouse SIRPα
T3 sequence (Q61735 19-125 limits assumed): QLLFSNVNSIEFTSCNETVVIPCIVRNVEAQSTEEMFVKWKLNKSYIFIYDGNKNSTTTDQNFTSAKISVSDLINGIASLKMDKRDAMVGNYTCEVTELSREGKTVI
The series can be described thus: Blocking assay, mouse CD47-IgV-Domain-hIg binding to CHO cells expressing mouse SIRPα (flow cytometry). The conditions noted are these: figure 1D, approximately. The method, then: as §1

The target of series [5] is T4, mouse CD47-IgV-Domain protein (Mus musculus, UniProt Q61735).
T4 construct: Human or mouse CD47-IgV-Domain proteins were labeled with NT-647 dye
T4 sequence (Q61735 19-125 limits assumed): T3 sequence (Q61735 19-125 limits assumed)
The series can be described thus: MST binding assay to mouse CD47-IgV-Domain protein. The conditions noted are these: figure 1B, read-out: KD, pep-20/mCD47. How it is done:
as §2

Series [6] is described as follows: Solubility as observed in the binding assay. The class given is physicochemical. The following applies: higher titrating concentrations for the MST binding assay could not be used. The method, then:
To assess the affinity of these candidate peptides toward human CD47, the preliminary binding assay was performed. […] In addition, due to the presence of consensus sequences, it can be hypothesized that the peptides pep-5, pep-9 and pep-19 may have higher affinities.
Table S1. Amino acid sequences and binding activity of selected peptides.
Name Peptide sequence Frequency (n/43) KD (μM)
Peptides targeting hCD47 were obtained by bio-panning, the affinity of peptides to hCD47

The mark [7] stands for this setting: preliminary binding assay, Table S1, NT-647 labeled hCD47, 50 mM Tris, 150 mM NaCl, 10 mM MgCl2, 0.05% Tween-20, 0.5% DMSO, pH 7.5, 25°C, read-out: KD.
Where [8] appears, read: 2 mg/kg s.c. daily over 14 days, days 0 and 14, n = 5.

T1 sequence (Q08722 19-127 limits assumed): as the sequence (Q08722 19-127 limits assumed) above

As to `C[C@H](NC(=O)[C@H](CO)NC(=O)[C@H](Cc1c[nH]c2ccccc12)NC(=O)[C@@H](C)N)C(=O)N[C@H](C(=O)N[C@@H](Cc1c[nH]c2ccccc12)C(=O)N[C@@H](CO)C(=O)N[C@@H](CC(N)=O)C(=O)N[C@@H](Cc1ccc(O)cc1)C(=O)N[C@@H](Cc1c[nH]c2ccccc12)C(=O)N[C@@H](CCCNC(=N)N)C(=O)N[C@H](Cc1c[nH]cn1)C(=O)O)[C@@H](C)O` [pep-20-D2] (H-[dA]WSATWSNYWR[dH]-OH), the “Blocking rate relative to pep-20 (%)” value in series [1] is recorded as 83%.
Consider `C[C@H](NC(=O)[C@H](CO)NC(=O)[C@H](Cc1c[nH]c2ccccc12)NC(=O)[C@@H](C)N)C(=O)N[C@H](C(=O)N[C@@H](Cc1c[nH]c2ccccc12)C(=O)N[C@@H](CO)C(=O)N[C@@H](CC(N)=O)C(=O)N[C@@H](Cc1ccc(O)cc1)C(=O)N[C@@H](Cc1c[nH]c2ccccc12)C(=O)N[C@H](CCCNC(=N)N)C(=O)N[C@H](Cc1c[nH]cn1)C(=O)O)[C@@H](C)O` [pep-20-D3] (H-[dA]WSATWSNYW[dR][dH]-OH), for which, in series [1], the “Blocking rate relative to pep-20 (%)” value is on record as 75%.
The same measure, in the same setting: the value for `C[C@H](NC(=O)[C@H](CO)NC(=O)[C@H](Cc1c[nH]c2ccccc12)NC(=O)[C@@H](C)N)C(=O)N[C@H](C(=O)N[C@@H](Cc1c[nH]c2ccccc12)C(=O)N[C@@H](CO)C(=O)N[C@@H](CC(N)=O)C(=O)N[C@@H](Cc1ccc(O)cc1)C(=O)N[C@H](Cc1c[nH]c2ccccc12)C(=O)N[C@H](CCCNC(=N)N)C(=O)N[C@H](Cc1c[nH]cn1)C(=O)O)[C@@H](C)O` [pep-20-D4] (H-[dA]WSATWSNY[dW][dR][dH]-OH) was 96%.
Regarding ASFSSYNRGYMY [pep-15], the Kd in series [2] (setting [7]) came out at 14.7 ± 20 µM.
Same read-out and setting: then ASYTDWWRNRLQ [pep-18], with 161 ± 111 µM.
As for AWSATWSNYWRH [pep-20], in series [3], the highest level (Cmax) was 33600 ng/mL. Moreover, in the series with C57BL/6 naïve mice (2 mg/kg s.c. daily for 14 days, n = 5, NS 0.3±0.04), the “Organ coefficient, Spleen” value was 0.31±0.3. Moreover, the “Organ coefficient, thymus” value in the series on C57BL/6 naïve mice (2 mg/kg s.c. daily for 14 days, n = 5, NS 0.42±0.06) was 0.36±0.07. For the same compound, in the series with C57BL/6 naïve mice (2 mg/kg s.c. daily for 14 days, n = 5, NS 0.55±0.03), the “Organ coefficient, Heart” value was found to be 0.58±0.05. For the same compound, the “Organ coefficient, Lung” value in the series on C57BL/6 naïve mice (2 mg/kg s.c. daily for 14 days, n = 5, NS 0.76±0.19) was found to be 0.77±0.18. For the same compound, the “Organ coefficient, Kidney” value with C57BL/6 naïve mice (2 mg/kg s.c. daily for 14 days, n = 5, NS 1.15±0.05) stood at 1.14±0.06. Besides, the “Organ coefficient, Liver” value with C57BL/6 naïve mice (2 mg/kg s.c. daily for 14 days, n = 5, NS 5.02±0.3) turned out to be 5.01±0.16. For the same compound, the “Histopathology, H&E staining of major organs” value in the series with C57BL/6 naïve mice (2 mg/kg s.c. daily for 14 days, heart, liver, spleen, lung, kidney, thymus) is “no abnormalities”. Further, the Hemoglobin level result in the series with C57BL/6 naïve mice (setting [8]) is reported as “no significant differences”. The “Red blood cell count” value in the series with C57BL/6 naïve mice (setting [8]) is on record as “no significant differences”. The same compound gave an ALT with C57BL/6 naïve mice (serum, 2 mg/kg s.c. daily for 14 days, n = 5, NS 6.79±0.92) of 7.03±0.86. In the series with C57BL/6 naïve mice (serum, 2 mg/kg s.c. daily for 14 days, n = 5, NS 23.40±4.41), this compound yielded an AST of 28.41±5.08. The IC50 is 24.6 µM in series [1] (20 nM human CD47-IgV-Domain-hIg, CHO cells expressing human SIRPα, flow cytometry, figure 1C) and approximately 12 µM in series [4]. In series [1], the “Blocking rate relative to pep-20 (%)” value came to 100%. Further, the Kd in series [2] (human CD47-IgV-Domain protein, figure 1A, read-out: KD, pep-20/hCD47) worked out at 2.91 ± 1.04 µM; in series [2] (setting [7]), 3.19 ± 2.27 µM; in series [5], 3.63 ± 1.71 µM. The compound further showed a half-life in the series “in vivo” of 35.4 min.
Take DRIPKIPGLPVL [pep-6]: the Kd in series [2] (setting [7]) stood at 9.27 ± 15.1 µM.
The same measure, in the same setting: then GNKLTQLAASMM [pep-4], with 5.32 µM.
For GTYSNYVSHINN [pep-9], the Solubility result in series [6] is reported as “poor solubility”.
For KLLPSLPSVSRN [pep-14], the Kd in series [2] (setting [7]) was more than 500 µM.
LPHYIYETLPVR [pep-5]: the Solubility result in series [6] is recorded as “poor solubility”.
Turning to LYAGKLERISRG [pep-16], the Kd in series [2] (setting [7]) was 10.7 ± 8.89 µM.
With TDLRYKEHYLYL [pep-3], the Kd in series [2] (setting [7]) was determined as 0.67 µM.
The same measure, in the same setting: the value for VSPLELADNPMY [pep-10] was 49.9 ± 54.8 µM.
As for VSYKEHDMLYSF [pep-19], the Solubility entry in series [6] is “poor solubility”.

For orientation: Cmax means the highest concentration seen after dosing. One may read the IC50 as the concentration needed to halve the response being measured. A low value points to higher potency. For orientation: half-life means the time in which the quantity being followed falls by half. Low values mean fast loss, high ones slow loss.
